According to paper PMC6219506, “Onsite GTP fuelling via DYNAMO1 drives division of mitochondria and peroxisomes” (Nature Communications, 2018):

Columns and labels:
[1] = molecular target: recombinant DYNAMO1 (dynamin-based ring motive-force organizer 1), GST removed (Cyanidioschyzon merolae); experiment: SEC; 1 μg purified recombinant DYNAMO1 on a Sepharose 6 10/300 GL column, AKTA prime; standards thyroglobulin, γ-globulin, ovalbumin
DYNAMO1-Dnm1 string [2] = molecular target: T1, DYNAMO1-Dnm1 string (Cyanidioschyzon merolae, UniProt A0A125YLX6); experiment: malachite green phosphate release (GTPase activity); format: biochemical; settings: 20 mM HEPES, pH 7.5, 30 mM KCl, 1 mM MgCl2, 1 mM DTT; 37 °C; DYNAMO1 at half the amount of Dnm1
T1 construct: gene CYME_CME019C; with Nucleoside diphosphate kinase-like protein DYNAMO1

DYNAMO1-Dnm1 string [3] = molecular target: T1, DYNAMO1-Dnm1 string; experiment: as above; format: biochemical; settings: 20 mM HEPES, pH 7.5, 30 mM KCl, 1 mM MgCl2, 1 mM DTT; 37 °C; DYNAMO1 at half the amount of Dnm1; remark: listed apart in the source
DYNAMO1 = molecular target: T2, DYNAMO1 (Cyanidioschyzon merolae, UniProt M1USP1); experiment: LC-ESI-MS/MS of nucleotides (nucleoside diphosphate kinase activity); format: biochemical; settings: 100 nM enzyme, 37 °C, 3 min
T2 construct: gene CYME_CML110C; open reading frame in pGEX6p-1, GST tag cut off with PreScission protease, E. coli XL-1 Blue; 17 kDa; tetramer
T2 sequence (M1USP1 1-153): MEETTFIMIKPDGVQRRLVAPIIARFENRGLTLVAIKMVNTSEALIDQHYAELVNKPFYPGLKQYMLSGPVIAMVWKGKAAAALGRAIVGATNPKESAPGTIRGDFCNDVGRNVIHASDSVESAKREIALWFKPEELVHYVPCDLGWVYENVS

T1 sequence (A0A125YLX6 entry or part of it, one chain of several): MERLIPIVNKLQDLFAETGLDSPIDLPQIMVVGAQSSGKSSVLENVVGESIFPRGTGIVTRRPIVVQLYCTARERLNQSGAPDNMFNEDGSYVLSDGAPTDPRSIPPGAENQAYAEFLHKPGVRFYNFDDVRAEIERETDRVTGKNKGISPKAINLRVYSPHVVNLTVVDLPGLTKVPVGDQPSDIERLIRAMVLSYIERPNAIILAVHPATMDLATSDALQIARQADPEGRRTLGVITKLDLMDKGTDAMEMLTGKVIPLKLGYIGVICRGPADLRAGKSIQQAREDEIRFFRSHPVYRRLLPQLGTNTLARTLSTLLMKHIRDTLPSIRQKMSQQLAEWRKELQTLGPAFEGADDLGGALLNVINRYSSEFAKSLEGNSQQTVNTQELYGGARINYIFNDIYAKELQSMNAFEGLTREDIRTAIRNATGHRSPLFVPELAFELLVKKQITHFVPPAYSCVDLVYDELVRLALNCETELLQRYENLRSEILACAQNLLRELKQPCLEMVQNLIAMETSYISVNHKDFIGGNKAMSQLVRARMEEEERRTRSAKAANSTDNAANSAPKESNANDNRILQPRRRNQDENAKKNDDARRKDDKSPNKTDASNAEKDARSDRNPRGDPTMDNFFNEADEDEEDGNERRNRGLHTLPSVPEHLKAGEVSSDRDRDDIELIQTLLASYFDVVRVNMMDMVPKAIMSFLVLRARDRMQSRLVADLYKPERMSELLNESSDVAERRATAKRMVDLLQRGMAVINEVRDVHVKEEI

recombinant DYNAMO1 (dynamin-based ring motive-force organizer 1), GST removed (natural protein)
stoichiometry N [1]: 4

Nc1nc2c(ncn2[C@@H]2O[C@H](COP(=O)(O)OP(=O)(O)OP(=O)(O)O)[C@@H](O)[C@H]2O)c(=O)[nH]1 [GTP]
malachite green phosphate release (GTPase activity) (DYNAMO1-Dnm1 string [2]): the GTPase activity of Dnm1 was higher in DYNAMO1-Dnm1 and DYNAMO1 H116D-Dnm1 strings
malachite green phosphate release (GTPase activity) (DYNAMO1-Dnm1 string [3]): the GTPase activity of Dnm1 was higher in DYNAMO1-Dnm1 and DYNAMO1 H116D-Dnm1 strings

Nc1ncnc2c1ncn2[C@@H]1O[C@H](COP(=O)(O)OP(=O)(O)OP(=O)(O)O)[C@@H](O)[C@H]1O [ATP]
LC-ESI-MS/MS of nucleotides (nucleoside diphosphate kinase activity) (DYNAMO1; co-substrate GDP): generated GTP upon addition of ATP plus GDP (Fig. 1e, f)

Nc1nc2c(ncn2[C@@H]2O[C@H](COP(=O)(O)OP(=O)(O)O)[C@@H](O)[C@H]2O)c(=O)[nH]1 [GDP]
LC-ESI-MS/MS of nucleotides (nucleoside diphosphate kinase activity) (DYNAMO1; co-substrate ATP): generated GTP upon addition of ATP plus GDP (Fig. 1e, f)
